{"source": "Sander's compilation of Henry's law constants (doi:10.1021/jf60162a025)", "assay": "Henry solubility constant Hcp at 298.15 K (mol/(m3 Pa))", "conditions": "reference: Buttery et al. (1969)"}
{"smiles": "CCCCCCO", "note": "[1-hexanol]", "values": [{"measurement": "Henry solubility constant Hcp", "value": 0.58}]}
{"smiles": "CCCCCCCCO", "note": "[1-octanol]", "values": [{"measurement": "Henry solubility constant Hcp", "value": 0.4}]}
{"smiles": "CCCCCC(C)=O", "note": "[2-heptanone]", "values": [{"measurement": "Henry solubility constant Hcp", "value": 0.068}]}
{"smiles": "CCCCCCCC(C)=O", "note": "[2-nonanone]", "values": [{"measurement": "Henry solubility constant Hcp", "value": 0.027}]}
{"smiles": "CCCCCCC(C)=O", "note": "[2-octanone]", "values": [{"measurement": "Henry solubility constant Hcp", "value": 0.052}]}
{"smiles": "CCCC(C)=O", "note": "[2-pentanone]", "values": [{"measurement": "Henry solubility constant Hcp", "value": 0.16}]}
{"smiles": "CCCCCCCCCC(C)=O", "note": "[2-undecanone]", "values": [{"measurement": "Henry solubility constant Hcp", "value": 0.016}]}
{"smiles": "CCCC=O", "note": "[butanal]", "values": [{"measurement": "Henry solubility constant Hcp", "value": 0.086}]}
{"smiles": "CCCCCCC=O", "note": "[heptanal]", "values": [{"measurement": "Henry solubility constant Hcp", "value": 0.037}]}
{"smiles": "CCCC(=O)OC", "note": "[methyl butanoate]", "values": [{"measurement": "Henry solubility constant Hcp", "value": 0.048}]}
{"smiles": "COC(C)=O", "note": "[methyl ethanoate]", "values": [{"measurement": "Henry solubility constant Hcp", "value": 0.086}]}
{"smiles": "CCCCCC(=O)OC", "note": "[methyl hexanoate]", "values": [{"measurement": "Henry solubility constant Hcp", "value": 0.027}]}
{"smiles": "CCCCCCCC(=O)OC", "note": "[methyl octanoate]", "values": [{"measurement": "Henry solubility constant Hcp", "value": 0.013}]}
{"smiles": "CCCCC(=O)OC", "note": "[methyl pentanoate]", "values": [{"measurement": "Henry solubility constant Hcp", "value": 0.031}]}
{"smiles": "CCC(=O)OC", "note": "[methyl propanoate]", "values": [{"measurement": "Henry solubility constant Hcp", "value": 0.057}]}
{"smiles": "CCCCCCCCC=O", "note": "[nonanal]", "values": [{"measurement": "Henry solubility constant Hcp", "value": 0.013}]}
{"smiles": "CCCCCCCC=O", "note": "[octanal]", "values": [{"measurement": "Henry solubility constant Hcp", "value": 0.019}]}
{"smiles": "CCCCC=O", "note": "[pentanal]", "values": [{"measurement": "Henry solubility constant Hcp", "value": 0.067}]}
{"smiles": "CC(C)=O", "note": "[propanone]", "values": [{"measurement": "Henry solubility constant Hcp", "value": 0.25}]}
